Experimental data as given in patent publication US20260248800A1, “FERROPTOSIS INHIBITORS AND USES THEREOF” (UNIVERSITY OF OTTAWA, priority 2022, published 2026).
Read-outs that look alike come from different tables or passages of the source.

How the values were obtained:
[1] = MeOAMVN-initiated co-autoxidation of STY-BODIPY and egg PC liposomes (FENIX); type: biochemical; details: for n (radical-trapping stoichiometry): MeOAMVN-initiated co-autoxidation of STY-BODIPY and egg PC liposomes
[2] = H-bond acidity (α2^H) of the RTA by 1H NMR; type: physicochemical; details: estimated from the 1H NMR chemical shift difference of the amine proton in DMSO-d6 and benzene-d6
[3] = tested on: Pfa-1 mouse embryonic fibroblasts (MEFs); assay: cells; details: Fibroblast
[4] = apparent inhibition rate constant, MeOAMVN-initiated autoxidation of egg PC liposomes, determined by absorbance (STY-BODIPY 10-20 μM, 565 nm)
[5] = 5 h, read-out: Pfa-1 MEF Ferroptosis EC50, RSL3-induced cell death (150 nM for 5 hours), AquaBluer
[6] = apparent inhibition rate constant, MeOAMVN-initiated autoxidation of egg PC liposomes, determined by fluorescence
[7] = Table 6, from survival curve of RSL3 induced ferroptosis of pfa-1 MEFS
[8] = predicted from log kinh^0, α2^H and β2^H=0.69 using Eq. 4 (too reactive to be determined directly)

Row | SMILES | α2^H [2] | n (radical-trapping stoichiometry) [1] | kinh^lip [1, 4] | EC50 [3, 5] | kinh^lip [1, 6] | EC50 [3, 7] | EC50 ([3]; 5 h, read-out: Pfa-1 MEF Ferroptosis EC50) | kinh^lip [1, 8] | predicted increase in kinh^lip relative to PNX ([1]; predicted/estimated kinh^lip vs PNX)
1 | c1ccc2c(c1)Nc1ccccc1[Se]2 [Compound 3, phenoselenazine, reference compound] | 0.36 | 2.3 ± 0.1 | (56 ± 3)^e 10^5 M^−1s^−1 | 23 ± 2 nM | – | – | – | – | –
2 | c1ccc2c(c1)Nc1cc3ccccc3cc1O2 [Compound 4, 12H-Benzo[b]phenoxazine] | 0.49 | 2.4 ± 0.1 | – | 5.2 ± 0.9 nM | (101 ± 12) 10^5 M^−1s^−1 | – | – | – | –
3 | c1ccc2c(c1)Nc1cc3ccccc3cc1S2 [Compound 5, 12H-Benzo[b]phenothiazine, reference compound] | 0.40 | 1.9 ± 0.1 | – | 7.8 ± 0.2 nM | (51 ± 3) 10^5 M^−1s^−1 | – | – | – | –
4 | FC(F)(F)c1ccc2c(c1)Oc1ccccc1N2 [Compound 9, 3-trifluoromethylphenoxazine] | – | 3.0 ± 0.1 | – | 12 nM | (42 ± 2) 10^5 M^−1s^−1 | 12 ± 1 nM | – | – | –
5 | O=Cc1ccc2c(c1)Oc1cc(C=O)ccc1N2 [Compound 13, 3,7-Diformylphenoxazine] | 0.63 | 3.2 ± 0.1 | – | 340 ± 49 nM | (10 ± 1) 10^5 M^−1s^−1 | – | – | – | –
6 | N#Cc1ccc2c(c1)Oc1cc(C=O)ccc1N2 [Compound 14, 3-Cyano-7-formylphenoxazine] | 0.64 | – | – | – | (7.1 ± 0.1) 10^5 M^−1s^−1 | – | 240 ± 16 nM | – | –
7 | O=[N+]([O-])c1ccc2c(c1)Oc1ccccc1N2 [Compound 15, 3-nitrophenoxazine] | 0.62 | 2.2 ± 0.1 | (10 ± 1)^e 10^5 M^−1s^−1 | 43 nM | – | – | – | – | –
8 | Cc1ccc2c(c1)Oc1cc([N+](=O)[O-])ccc1N2 [Compound 16, 3-Methyl-7-nitrophenoxazine] | 0.60 | 3.8 ± 0.3 | (23 ± 2)^e 10^5 M^−1s^−1 | 15 ± 1 nM | – | – | – | – | –
9 | O=[N+]([O-])c1ccc2c(c1)Oc1cc([N+](=O)[O-])ccc1N2 [Compound 19, 3,7-Dinitrophenoxazine] | 0.72 | – | (1.3 ± 0.1)^e 10^5 M^−1s^−1 | 405 nM | – | – | – | – | –
10 | CC(C)(C)c1ccc2c(c1)Nc1cc(C(C)(C)C)ccc1O2 [Compound 33, 2,8-di-tert-butylphenoxazine] | – | – | – | 7.2 ± 0.4 nM | – | 7.2 ± 0.4 nM | – | 730 ^f 10^5 M^−1s^−1 | –
11 | CC(C)(C)c1ccc2c(c1)Oc1cc(C(C)(C)C)ccc1N2 [Compound 34, 3,7-di-tert-butylphenoxazine] | – | – | – | 7.4 ± 0.1 nM | – | 7.4 ± 0.1 nM | – | 1280 ^f 10^5 M^−1s^−1 | –
12 | CC(c1ccc2c(c1)Nc1ccccc1O2)S(=O)(=O)NCCN(C)C (centres unmarked) [Compound 43, N-(2-(dimethylamino)ethyl)-1-(10H-phenoxazin-2-yl)ethanesulfonamide] | – | – | – | 15 ± 1 nM | – | 15 ± 1 nM | – | – | –
13 | CC(c1ccc2c(c1)Nc1ccccc1O2)S(=O)(=O)N1CCNCC1 (centres unmarked) [Compound 45, 2-(1-(piperazin-1-ylsulfonyl)ethyl)-10H-phenoxazine] | – | – | – | 13 ± 1 nM | – | 13 ± 1 nM | – | – | –
14 | CC(c1ccc2c(c1)Nc1ccccc1O2)S(=O)(=O)N1CCN(C)CC1 (centres unmarked) [Compound 47, 2-(1-((4-methylpiperazin-1-yl)sulfonyl)ethyl)-10H-phenoxazine] | – | – | – | 45 ± 6 nM | – | 45 ± 6 nM | – | – | –
15 | CC(c1ccc2c(c1)Nc1ccc(C(F)(F)F)cc1O2)S(=O)(=O)N1CCN(C)CC1 (centres unmarked) [Compound 48, 2-(1-((4-methylpiperazin-1-yl)sulfonyl)ethyl)-7-(trifluoromethyl)-10H-phenoxazine] | – | – | – | 16 ± 2 nM | – | 16 ± 2 nM | – | – | –
16 | CC(C)(C)c1ccc2c(c1)Nc1ccc(S(=O)(=O)N3CCNCC3)cc1O2 [Compound 60, 2-tert-Butyl-7-(piperazin-1-ylsulfonyl)-phenoxazine] | – | – | – | 3 ± 0.2 nM | – | 3 ± 0.2 nM | – | – | –
17 | CN1CCN(S(=O)(=O)c2ccc3c(c2)Oc2ccc(C(C)(C)C)cc2N3)CC1 [Compound 61, 2-tert-Butyl-7-(4-methylpiperazin-1-ylsulfonyl)-phenoxazine] | – | – | – | 15 ± 1 nM | – | – | – | – | –
18 | CCN(CC)S(=O)(=O)c1ccc2c(c1)Oc1ccccc1N2 [Compound 65, N,N-diethyl-3-sulfonamidephenoxazine] | – | – | – | 31 ± 1 nM | – | – | – | – | –

Further lines, with some results ahead:

Row | α2^H [2] | SMILES | n (radical-trapping stoichiometry) [1] | kinh^lip [1, 4] | EC50 [3, 5] | kinh^lip [1, 6] | EC50 [3, 7] | EC50 ([3]; 5 h, read-out: Pfa-1 MEF Ferroptosis EC50) | kinh^lip [1, 8] | predicted increase in kinh^lip relative to PNX ([1]; predicted/estimated kinh^lip vs PNX)
19 | 0.60 | COc1ccc2c(c1)Oc1cc([N+](=O)[O-])ccc1N2 [Compound 17, 3-nitro-7-methoxyphenoxazine] | 2.9 ± 0.2 | (61 ± 4)e 10^5 M^−1s^−1 | 31 ± 1 nM | – | – | – | – | –
20 | 0.58 | CCN(CC)c1ccc2c(c1)Oc1cc([N+](=O)[O-])ccc1N2 [Compound 18, N,N-diethyl-3-amine-7-nitrophenoxazine] | 2.4 ± 0.4 | (177 ± 37)^e 10^5 M^−1s^−1 | 14 ± 2 nM | – | – | – | – | –
21 | 0.56 | N#Cc1ccc2c(c1)Oc1ccccc1N2 [Compound 20, 3-cyanophenoxazine] | 3.6 ± 0.1 | – | 58 ± 1 nM | (27 ± 2) 10^5 M^−1s^−1 | – | – | – | –
22 | 0.55 | Cc1ccc2c(c1)Oc1cc(C#N)ccc1N2 [Compound 21, 3-Methyl-7-cyanophenoxazine] | 3.5 ± 0.1 | – | 22 ± 5 nM | (44 ± 6) 10^5 M^−1s^−1 | – | – | – | –
23 | 0.55 | COc1ccc2c(c1)Oc1cc(C#N)ccc1N2 [Compound 22, 3-Methoxy-7-cyanophenoxazine] | 3.1 ± 0.3 | (133 ± 15)^e 10^5 M^−1s^−1 | 42 ± 6 nM | – | – | – | – | –
24 | 0.69 | N#Cc1ccc2c(c1)Oc1cc([N+](=O)[O-])ccc1N2 [Compound 23, 3-cyano-7-nitrophenoxazine] | – | (1.6 ± 0.1)^e 10^5 M^−1s^−1 | 455 ± 19 nM | – | – | – | – | –
25 | 0.45 | FC(F)(F)c1ccc2c(c1)Sc1ccccc1N2 [Compound 26, 3-trifluoromethylphenothiazine, reference compound] | 2.6 ± 0.1 | – | 41 ± 5 nM | (9.8 ± 0.5) 10^5 M^−1s^−1 | – | – | – | –
26 | 0.47 | O=Cc1ccc2c(c1)Sc1ccccc1N2 [Compound 27, 3-formylphenothiazine, reference compound] | 2.2 ± 0.1 | – | 140 ± 10 nM | (14 ± 1) 10^5 M^−1s^−1 | – | – | – | –
27 | 0.52 | O=[N+]([O-])c1ccc2c(c1)Sc1ccccc1N2 [Compound 28, 3-nitrophenothiazine, reference compound] | 2.0 ± 0.1 | – | 140 ± 18 nM | (5.3 ± 0.3) 10^5 M^−1s^−1 | – | – | – | –
28 | 0.06 | Cc1cccc2c1Nc1c(C)cccc1S2 [Compound 31, 1,9-dimethylphenothiazine, reference compound] | 1.7 ± 0.1 | – | 35 ± 2 nM | (98 ± 5) 10^5 M^−1s^−1 | – | – | – | –
29 | 0.34 | COc1ccc2c(c1)Sc1cc(OC)ccc1N2 [Compound 32, 3,7-dimethoxyphenothiazine, reference compound] | – | – | 9 nM | – | – | – | 840 ^f 10^5 M^−1s^−1 | 3.8 fold
30 | 0.12 | Cc1cccc2c1Nc1c(C)cccc1O2 [Compound 36, 1,9-Dimethylphenoxazine] | – | – | 14 nM | – | – | – | 1150 ^f 10^5 M^−1s^−1 | –
